The results in this text go back to EP4782453A1 (Beyang Therapeutics Co., Ltd., priority 2023, dated 2025).

Broadly, the IC50 is the concentration at which inhibition is half-maximal.

One assay addresses T1, Menin-MLL (Homo sapiens, UniProt O00255).
T1 construct: His-Menin (M1-L615 end); purchased BIORTUS BP9210
T1 sequence (O00255 1-615 isoform O00255-1): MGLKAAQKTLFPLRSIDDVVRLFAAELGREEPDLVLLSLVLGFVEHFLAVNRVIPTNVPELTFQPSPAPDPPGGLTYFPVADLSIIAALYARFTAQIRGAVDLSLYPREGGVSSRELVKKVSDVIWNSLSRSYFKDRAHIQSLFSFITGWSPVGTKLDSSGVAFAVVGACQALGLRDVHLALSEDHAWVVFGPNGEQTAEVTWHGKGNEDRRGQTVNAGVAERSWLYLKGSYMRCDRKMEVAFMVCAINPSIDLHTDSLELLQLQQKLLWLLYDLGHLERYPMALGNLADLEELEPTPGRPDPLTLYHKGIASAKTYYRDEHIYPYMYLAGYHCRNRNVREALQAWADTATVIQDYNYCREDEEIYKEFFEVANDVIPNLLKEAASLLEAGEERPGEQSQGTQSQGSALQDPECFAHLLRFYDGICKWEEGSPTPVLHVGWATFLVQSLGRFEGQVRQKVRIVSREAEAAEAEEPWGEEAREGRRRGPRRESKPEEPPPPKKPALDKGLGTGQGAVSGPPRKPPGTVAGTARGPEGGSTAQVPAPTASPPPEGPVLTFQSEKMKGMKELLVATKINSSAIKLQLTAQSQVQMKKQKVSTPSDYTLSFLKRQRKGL
Briefly: Inhibitory activity against Menin-MLL binding (fluorescence polarization). The conditions noted are these: 150 nM His-Menin, 15 nM FITC-MLL, 25°C for 60 min. In outline: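 His-Menin (M1-L615, 150 nM) preincubated with compound 15 min at 25 °C in HEPES pH 7.5, 50 mM NaCl, 1 mM DTT, 0.01% BSA, then 15 nM FITC-MLL4-43 peptide added for 60 min at 25 °C. Fluorescence polarization read; IC50 from 4-parameter logistic fit, duplicates.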
(In general: Fluorescence polarisation rises when a labelled molecule tumbles more slowly, as on binding a larger partner.)

Assay [1] relates to MV-4-11 (carrying MLL-AF4). In words: Inhibition of proliferation of human tumor cells (Alamar Blue, 7 days), MV-4-11. The conditions noted are these: Homo sapiens, MV4-11, 168 h, MV-4-11 cells (carrying MLL-AF4), method calls the value GI50. In kind it is cell-based. An excerpt: Experimental Example 2: Evaluation of Inhibitory Activity of Compounds Against Proliferation of Human Tumor Cells
• Human acute lymphoblastic leukemia cells MV-4-11, purchased from American Type Culture Collection, Catalog Number: CRL-9591; • Human acute myeloid leukemia cells MOLM-13, purchased from COBIOER BIOSCIENCES CO., LTD, Catalog Number: CBP60678; • Human acute myeloid leukemia cells KG-1a, purchased from American Type Culture Collection, Catalog Number: CCL-246.1; • Inverted Microscope, purchased from Olympus Tokyo; • Countess™ Automated Cell Counter, purchased from Invitrogen, Model: C10281; and • Multilabel Reader, purchased from Bio-Tek, Model: Synergy HT.
MV-4-11 cells were cultured in an IMDM medium containing 10% fetal bovine serum, KG-a cells were cultured in an IMDM medium containing 20% fetal bovine serum, or MOLM-13 cells were cultured in an RPMI-1640 medium containing 20% fetal bovine serum, each supplemented with 100 U·mL^-1 penicillin and 100 µg·mL^-1 streptomycin. These cells were cultured at 37°C with 5% CO2. The suspensions of individual cell lines were prepared in their respective media and seeded into 96-well plates at a density of 4,000 cells/well for MV-4-11 and MOLM-13 cells, or 3,000 cells/well for KG-1a cells. On the day of the experiment, a compound stock solution was diluted in a 3-fold or 4-fold gradient using DMSO. Each gradient-diluted stock solution was then further diluted 250-fold with a complete medium to prepare a series of working solutions at different concentrations. Subsequently, 100 µL of working solution (containing a 2-fold concentration series of the test compound) was added to each well, with duplicate wells set up for each concentration.
Seven days after compound addition (on Day 7), an Alamar Blue assay reagent (MCE, HY-111391 / CS-0040317) was added to measure the fluorescence intensity in each well. Wells containing the cells in the growth medium supplemented with 0.1% DMSO (Day 7) served as high-read control wells. The readouts from the wells containing the cells in the growth medium supplemented with 0.1% DMSO on the day of compound addition (Day 0) served as low-reading control well. GraphPad Prism software was used to calculate the concentration required to inhibit 50% of cell proliferation (GI50), which serves as a cell proliferation inhibition activity index.
On the technique in general: The colour change of resazurin is a common sign of viable cells or microbes.

The test system of assay [2] is MOLM-13 (carrying MLL-AF9). Briefly: Inhibition of proliferation of human tumor cells (Alamar Blue, 7 days), MOLM-13. The class given is cell-based. The conditions noted are these: Homo sapiens, MOLM-13 cells (carrying MLL-AF9), method calls the value GI50. In outline: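 Cells seeded at 4,000/well (MV-4-11, MOLM-13) or 3,000/well (KG-1a), treated in duplicate with serial compound dilutions for 7 days at 37°C, 5% CO2. Alamar Blue fluorescence read on Day 7, normalised to 0.1% DMSO Day-7 (high) and Day-0 (low) controls; GI50 derived.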

The mark [3] stands for this setting: Menin-MLL IC50, fluorescence polarization.
Setting [4] is: fluorescence polarization, read-out: Menin-MLL IC50.

Like-named read-outs stand apart in the source and are kept apart here.

Turning to `CO[C@H]1CCN([C@H]2C[C@H](C(C(C)C)N3CC(c4cc(-c5ccc(F)cc5C(=O)N5CCOC[C@H]5C)c5cnn(C)c5c4)C3)C2)C1` (stereo partly drawn) [Example 196-1, 4-{4-fluoro-2-[(3R)-3-methylmorpholin-4-carbonyl]phenyl}-1-methyl-6-(1-{2-methyl-1-[(1r,3r)-3-[(3S)-3-methoxypyrrolidin-1-yl]cyclobutyl]propyl}azacyclobutan-3-yl)-1H-indazole], the IC50 at Menin-MLL (setting [3]) was 50 nM; in assay [1], 36 nM; in assay [2] (MOLM-13, 168 h), 120 nM.

Consider `Cc1nc(F)c2c(-c3ccc(F)cc3C(=O)N3CCOC[C@H]3C)cc(C3CN(C[C@H]4CC[C@@H](n5cncn5)CC4)C3)cn12` [Example 267, (3R)-4-{5-fluoro-2-[1-fluoro-3-methyl-6-(1-{[(1s,4s)-4-(1H-1,2,4-triazol-1-yl)cyclohexyl]methyl}azacyclobutan-3-yl)imidazo[1,5-a]pyridin-8yl]benzoyl}-3-methylmorpholine], for which the IC50 stood at 12 nM at Menin-MLL (setting [4]), 20 nM in assay [1] and 45 nM in assay [2] (168 h).

As for `CCS(=O)(=O)N[C@@H]1CC[C@@H](CN2CC(c3cc(-c4ccc(F)cc4C(=O)N(CC(F)F)C(C)C)c4c(F)nc(C)n4c3)C2)OC1` [Example 151], the IC50 turned out to be 15.5 nM at Menin-MLL (setting [4]), 40 nM in assay [1] and 61 nM in assay [2] (168 h).

`Cc1cncc2c(-c3ccc(F)cc3C(=O)N3[C@H](C)COC[C@H]3C)cc(CC3CN(CC4CCOCC4)C3)n12` [Example 230]: the IC50 on Menin-MLL (setting [4]) came out at 2 nM; in assay [1] it was 1 nM; in assay [2] (MOLM-13, 168 h) it was 2.9 nM.

With `CCS(=O)(=O)N[C@@H]1CC[C@@H](CN2CC(c3cc(-c4ccc(F)cc4C(=O)N(CC(F)F)C(C)C)c4cnc(C)n4c3)C2)OC1` [Example 150, N-(2,2-difluoroethyl)-2-[6-(1-{[(2S,5R)-5-ethanesulfonamidooxacyclohexan-2-yl]methyl}azacyclobutan-3-yl)-3-methylimidazo[1,5-a]pyridin-8-yl]-5-fluoro-N-(isopropyl)benzamide], the IC50 at Menin-MLL (setting [4]) was 24.5 nM; in assay [1], 21 nM; in assay [2] (168 h), 36 nM.

As for `Cc1nc(F)c2c(-c3ccc(F)cc3C(=O)N3CCOC[C@H]3C)cc(C3CN(CC4CCN(C(=O)C5CC5)CC4)C3)cn12` [Example 269], the IC50 was 33.5 nM on Menin-MLL (setting [4]), 37 nM in assay [1] and 83 nM in assay [2] (168 h).

Take `CCN(C(=O)c1cc(F)ccc1-c1cc(C2CN(C[C@H]3CC[C@H](NS(=O)(=O)CC)CC3)C2)cn2c(C)ncc12)C(C)C` [Example 120, N-ethyl-5-fluoro-2-[3-methyl-6-(1-{[(1r,4r)-4-ethanesulfonamidocyclohexyl]methyl}-azacyclobutan-3-yl)imidazo[1,5-a]pyridin-8-yl]-N-(isopropyl)benzamide]: the IC50 was 8.5 nM on Menin-MLL (setting [3]); 8.5 nM in assay [1]; 29.5 nM in assay [2] (MOLM-13, 168 h).

As for `COC1CCN(CCC[C@H](C(C)C)N2CC(c3cc(-c4ccc(F)cc4C(=O)N4CCOC[C@H]4C)c4cnn(C)c4c3)C2)CC1` [Example 181-2, 4-{4-fluoro-2-[(3R)-3-methylmorpholin-4-carbonyl]phenyl}-6-{1-[(3R)-6-(4-methoxypiperidin-1-yl)-2-methylhexan-3-yl]azacyclobutan-3-yl}-1-methyl-1H-indazole], the IC50 was 13.5 nM on Menin-MLL (setting [4]), 7.9 nM in assay [1] and 39 nM in assay [2] (168 h).

On to `CCS(=O)(=O)N[C@H]1CC[C@H](CN2CC(c3cc(-c4ccc(F)cc4C(=O)N4CCC[C@H]4C)c4c(F)nc(C)n4c3)C2)CC1` [Example 187, N-[(1r,4r)-4-{[3-(1-fluoro-8-{4-fluoro-2-[(2R)-2-methylpyrrolidin-1-carbonyl]phenyl}-3-methylimidazo[1,5-a]pyridin-6-yl)azacyclobutan-1-yl]methyl}cyclohexyl]ethan-1-sulfonamide], for which the IC50 is 16.5 nM at Menin-MLL (setting [3]); 15 nM in assay [1]; 36 nM in assay [2] (MOLM-13, 168 h).

As to `CCNC(=O)N1CCC(C(C)N2CC(c3cc(-c4ccc(F)cc4C(=O)N(CC)C(C)C)c4c(F)nc(C)n4c3)C2)CC1` (stereo not drawn) [Example 282, N-ethyl-4-{1-[3-(8-{2-[ethyl(isopropyl)aminoformyl]-4-fluorophenyl}-1-fluoro-3-methylimidazo[1,5-a]pyridin-6-yl)azacyclobutan-1-yl]ethyl}piperidin-1-formamide], the IC50 was found to be 4 nM at Menin-MLL (setting [4]), 5.4 nM in assay [1] and 25 nM in assay [2] (168 h).

Take `C=C1C[C@@H]2CC[C@H]1[C@@H](C(=O)N1CC(c3cc(-c4ccc(F)cc4C(=O)N(CC(F)F)C(C)C)c4cnc(C)n4c3)C1)N2` [Example 121, N-(2,2-difluoroethyl)-5-fluoro-2-(3-methyl-6-{1-[(1S,3S,4R)-5-methylene-2-azabicyclo[2.2.2]octan-3-carbonyl]azacyclobutan-3-yl}imidazo[1,5-a]pyridin-8-yl)-N-(isopropyl)benzamide]: the IC50 at Menin-MLL (setting [4]) stood at 23.5 nM; in assay [1] it was 42 nM; in assay [2] (168 h), 128 nM.

For `CNCCCC(C(C)C)N1CC(c2cc(-c3ccc(F)cc3C(=O)N(CC(F)F)C(C)C)c3cnc(C)n3c2)C1` (stereo not drawn) [Example 148], the figures for the concentration for half-maximal inhibition (IC50) (on Menin-MLL (setting [4]); in assay [1]; in assay [2] (168 h)) were 9 nM, 0.95 nM and 3.6 nM, respectively.

Consider `CNCCCC(C(C)C)N1CC(c2cc(-c3ccc(F)cc3C(=O)N(CC(F)F)C(C)C)c3cnccn23)C1` (stereo not drawn) [Example 146, N-(2,2-difluoroethyl)-5-fluoro-2-(6-{1-[2-methyl-6-(methylamino)hexan-3-yl]azacyclobutan-3-yl}pyrrolo[1,2-a]pyrazin-8-yl)-N-(isopropyl)benzamide], for which the half-maximal inhibitory concentration (IC50) on Menin-MLL (setting [4]) was 46 nM; in assay [1], 89 nM.

Take `COC[C@H]1CN(CCC[C@H](C(C)C)N2CC(c3cc(-c4ccc(F)cc4C(=O)N(C(C)C)C(C)C)c4cnc(C)n4c3)C2)CCN1` [Example 504-2, 5-fluoro-2-(6-{1-[(3R)-6-[(3R)-3-(methoxymethyl)piperazin-1-yl]-2-methylhexan-3-yl]azacyclobutan-3-yl}-3-methylimidazo[1,5-a]pyridin-8-yl)-N,N-di(isopropyl)benzamide]: the IC50 on Menin-MLL (setting [4]) was 1.2 nM; in assay [2] (168 h), 13 nM.

As to `CCN(C(=O)c1cc(F)ccc1-c1cc(C2CN([C@H](CCCN(C)CCOC)C(C)C)C2)cn2c(C)ncc12)C(C)C` [Example 510], the IC50 is 0.9 nM on Menin-MLL (setting [4]) and 9.9 nM in assay [2] (168 h).
